Experiment [1] has as its system mammalian small conductance calcium-activated potassium (KCa, SK) channel KCa2.2. Conditions: cited from earlier work. An excerpt: XYTX2-Xa2a is similar in sequence to Bombus and Apis MCD-peptides and apamin. Apamin is a blocker of the mammalian small conductance calcium-activated potassium (KCa, SK) channel KCa2.2[20], while Apis MCD peptide is a blocker of Shaker-like voltage-gated potassium (KV) channels KV1.1 and KV1.2[21]. We hypothesised that XYTX2-Xa2a might share similar activity. Thus, we tested XYTX2-Xa2a for activity on human KV1.1, KV1.2, KV1.3, KCa2.1 and KCa2.2.

For experiment [2], the system named is mice. Format: in vivo, male C57BL/6J mice.
Experiment [3] concerns mice. The format is in vivo, male C57BL/6J mice. The note with it: for pain behaviours on co-injection with venom PLA2: 200 pmol + venom PLA2 (20 pmol); for spontaneous pain behaviours: 200 pmol alone, 20 µL.
Experiment [4] has as its system mouse dorsal root ganglion (DRG) cells. Description: Calcium imaging assay of mouse DRG neurons. The format is cell-based. As to the method: Figure 5 Pain-causing effects of X. aruana venom components. (a,b) Application of XYTX1-Xa1a (10 μM) to DRG cells produced an immediate and sustained, non-cell-specific increase in [Ca^2+]i. (c) Potency of XYTX1-Xa1a and melittin in F11 cells, as monitored by changes in [Ca^2+]i. (d–f) The increase in [Ca^2+]i caused by XYTX1-Xa1a was potentiated by the presence of venom PLA2 (1 µM), but not XYTX2-Xa2a (1 μM). **P < 0.01 (unpaired t-test). […] Data are expressed as mean ± SEM (n = 3–6). […] Data are expressed as mean ± SEM (n = 3–6). *P < 0.05; **P < 0.01; ****P < 0.0001 (one way-ANOVA with Tukey’s multiple comparisons).
DRG cells were isolated from 4- to 6-week-old-male C57BL/6 mice that were purchased from the Animal Resources Centre (WA, Australia). DRGs were dissociated, then cells were plated in Dulbecco’s Modified Eagle’s Medium (DMEM; Gibco, MD, USA) containing 10% fetal bovine serum (FBS) (Assaymatrix, VIC, Australia) and penicillin/streptomycin (Gibco) on a 96-well poly-D-lysine-coated culture plate (Corning, ME, USA) and maintained overnight. Cells were loaded with Fluo-4 AM calcium indicator, according to the manufacturer’s instructions (ThermoFisher Scientific, MA, USA). After loading (1 h), the dye-containing solution was replaced with assay solution (1× Hanks’ balanced salt solution, 20 mM HEPES). Images were acquired at 10× objective at 1 frame/s (excitation 485 nm, emission 521 nm). Fluorescence corresponding to [Ca^2+]i of ~ 250 cells per experiment was monitored in parallel using an Nikon Ti-E Deconvolution inverted microscope, equipped with a Lumencor Spectra LED Lightsource. Baseline fluorescence was monitored for 30 s. At 30 s, assay solution was replaced with either assay solution, or assay solution containing venom PLA2 (1 µM) or XYTX2-Xa2a (1 µM), then at 1 min with XYTX1-Xa1a (in assay solution ± venom PLA2 (1 µM) or XYTX2-Xa2a (1 µM)) and monitored for 2 min before being replaced with assay solution and then KCl (30 mM; positive control). Experiments involving the use of mouse tissue were approved by the University of Queensland Animal Ethics Committee (UQ AEC; approval number TRI/IMB/093/17).
Data were plotted and analysed using Prism v9.0.0 (GraphPad Software, San Diego, CA, USA). For calcium imaging experiments of mouse DRG neurons and F11 cells, treatment groups were compared using unpaired t-tests. For analysis of spontaneous pain, sum of pain behaviour counts at 30 min of treatment groups were compared using one-way ANOVA with Tukey’s multiple comparisons test. Statistical significance was defined as P < 0.05. All data are presented as mean ± SEM.

For experiment [5], the system named is mice. Nature of the experiment: Paw swelling (paw thickness) after intraplantar injection. Format: in vivo, male C57BL/6J mice. Conditions: 200 pmol + venom PLA2 (20 pmol).
In a further experiment the test system is F11 cells. Format: cell-based, mouse neuroblastoma × rat DRG cell line. The note with it: FLIPR, Calcium 4; peptide in PSS + 0.1% BSA, 300 s; mean ± SEM, n = 6; read-out: EC50, increase of [Ca2+]i in F11 cells. The protocol:
F11 (mouse neuroblastoma × DRG neuron hybrid; European Collection of Authenticated Cell Cultures) were cultured as previously described. Cells were maintained on Ham’s F12 media supplemented with 10% FBS, 100 µM hypoxanthine, 0.4 µM aminopterin, and 16 µM thymidine (Hybri-Max, Sigma Aldrich). 384-well imaging plates (Corning, Lowell, MA, USA) were seeded 24 h prior to calcium imaging, resulting in ~ 90% confluence at the time of imaging. Cells were loaded for 30 min at 37 °C with Calcium 4 assay component A in physiological salt solution (PSS; 140 mM NaCl, 11.5 mM D-glucose, 5.9 mM KCl, 1.4 mM MgCl2, 1.2 mM NaH2PO4, 5 mM NaHCO3, 1.8 mM CaCl2, 10 mM HEPES) according to the manufacturer’s instructions (Molecular Devices, Sunnyvale, CA). Ca^2+ responses were measured using a FLIPR^TETRA fluorescent plate reader equipped with a CCD camera (Ex: 470 to 490 nm, Em: […]) (Molecular Devices, Sunnyvale, CA). Signals were read every second for 10 s before, and 300 s after, the addition of peptide (in PSS supplemented with 0.1% BSA).
Data were plotted and analysed using Prism v9.0.0 (GraphPad Software, San Diego, CA, USA). For calcium imaging experiments of mouse DRG neurons and F11 cells, treatment groups were compared using unpaired t-tests. […]

In the next experiment the test system is HEK293AD cells. Nature of the experiment: Whole-cell patch-clamp, leak current in HEK293AD cells (QPatch 16X). Format: cell-based. The protocol: The mature peptide of XYTX1-Xa1a shares a similar primary structure with Xac-1, Xac-2 and melectin. […] We hypothesised that XYTX1-Xa1a would share the same activity. We tested, by whole-cell patch-clamp electrophysiology, the capacity of XYTX1-Xa1a to directly induce leak currents in cell membranes. For these experiments we used HEK293AD cells, which lack appreciable expression of the ion channels found in neurons. At 4 min after application of XYTX1-Xa1a (30 μM) we recorded leak currents at test potentials ranging from − 60 to + 60 mV in 10-mV increments from a holding potential of 0 mV every 6 s. At + 60 mV, we recorded currents of 3.3 ± 0.6 nA (mean ± SEM, n = 6 cells) compared with 0.08 ± 0.02 nA (n = 5 cells) for time-matched negative controls (application of extracellular solution (ECS)) (Fig. 3a–c).
(a) Representative current traces in HEK293AD cells at voltages of − 60 to + 60 mV (10 mV steps) acquired before application and 2 min after application of (a) extracellular solution (ECS) or (b) 30 μM XYTX1-Xa1a. […] Data are expressed as mean ± SEM (n = 5–6 cells) and fitted to a simple linear regression. […]
HEK293AD cells (American Type Culture Collection) were cultured as previously described. […] From a holding potential of 0 mV each recorded cell was subjected to a series of 50-ms voltage pulses that ranged from − 60 to + 60 mV in 10-mV increments. […]
A general note: The patch-clamp technique gives a direct electrical read-out from membranes.

The conditions of experiment [6]: cited from earlier work. From the text: By far the most studied bee venom is that of the Western honeybee Apis mellifera. Its venom is dominated by a 26-residue cysteine-free amphipathic peptide known as melittin which makes up 40–60% of the dry weight of the venom. Another major components is venom phospholipase-A2 (PLA2; 10–12% dry weight), with smaller amounts of histamine (5–10%), venom hyaluronidase (1–2%) and the small disulfide-rich peptides apamin (3%) and mast cell-degranulating (MCD)-peptide (2%)[4]. Other reported components are present in trace amounts.

For experiment [7], the system named is Shaker-like voltage-gated potassium (KV) channel KV1.1. Conditions: cited from earlier work.
Experiment [8] deals with Shaker-like voltage-gated potassium (KV) channel KV1.2. The note with it: cited from earlier work.

Read-outs that look alike come from different tables or passages of the source. No end group written: not given here.

The text below walks through data of publication PMC9780326, “Venom composition and pain-causing toxins of the Australian great carpenter bee Xylocopa aruana” (Scientific Reports, 2022).

On to “apamin: A. mellifera apamin (Uniprot: P01500), purchased from Alomone labs (CNCKAPETALCARRCQQH; UniProt P01500 28-45, looked up)”, for which, in experiment [1], the “block of mammalian KCa2.2” value is “blocker”. In addition, the “paw-withdrawal threshold to a mechanical stimulus versus negative control (saline)” value with mice [2] (2 pmol/paw intraplantar, 1 and 4 h) is reported as “no difference to negative control (saline) injection”. Besides, the “pain behaviour counts versus control” value in the experiment on mice [3] (2 pmol alone, shallow intraplantar) is reported as “not different to control”.

Regarding GFLSILKKLPLILKHLP-NH2 [XYTX1-Xa1a], the “neurons with increase of [Ca2+]i” value in experiment [4] (10 μM (Fig. 5 legend), alone, mean ± SEM) stood at 49.4 ± 3.2%. Also, the “neurons activated, in the presence of XYTX2-Xa2a” value in [4] (with XYTX2-Xa2a (1 μM), mean ± SEM) is 45.8 ± 5.5%. In addition, the “cell lysis in the presence of venom PLA2” value in [4] (with venom PLA2 (1 µM), leakage of dye into extracellular media) is listed as “increased cell lysis”. The “neurons activated, in the presence of venom PLA2” value in [4] (with venom PLA2 (1 µM), mean ± SEM) amounted to 93.2 ± 6.5%. Further, the paw swelling entry with mice [5] is given as “caused paw swelling”. In addition, the “pain behaviours on co-injection with venom PLA2” value in the experiment with mice [3] was “increased (frequency and duration)”. In addition, the spontaneous pain behaviours result with mice [3] (shallow intraplantar) is listed as “caused spontaneous pain behaviours”. Moreover, the EC50 (in general, the midpoint of the concentration-response curve) in the experiment with F11 cells worked out at 5.2 ± 0.7 µM. In addition, in the experiment with HEK293AD cells (30 μM, 4 min after application, holding potential 0 mV, mean ± SEM, n = 6 cells, negative control ECS 0.08 ± 0.02 nA (n = 5 cells)), the “leak current at + 60 mV” value amounted to 3.3 ± 0.6 nA.

Turning to `CC[C@H](C)[C@H](NC(=O)CN)C(=O)NCC(=O)N[C@@H](C)C(=O)N[C@H](C(=O)N[C@@H](CC(C)C)C(=O)N[C@@H](CCCCN)C(=O)N[C@H](C(=O)N[C@@H](CC(C)C)C(=O)N[C@H](C(=O)N[C@H](C(=O)NCC(=O)N[C@@H](CC(C)C)C(=O)N1CCC[C@H]1C(=O)N[C@@H](C)C(=O)N[C@@H](CC(C)C)C(=O)N[C@H](C(=O)N[C@@H](CO)C(=O)N[C@@H](Cc1c[nH]c2ccccc12)C(=O)N[C@H](C(=O)N[C@@H](CCCCN)C(=O)N[C@@H](CCCNC(=N)N)C(=O)N[C@@H](CCCCN)C(=O)N[C@@H](CCCNC(=N)N)C(=O)N[C@@H](CCC(N)=O)C(=O)N[C@@H](CCC(N)=O)C(N)=O)[C@@H](C)CC)[C@@H](C)CC)[C@@H](C)O)[C@@H](C)O)C(C)C)C(C)C` [melittin], the paw swelling result in the experiment on mice [5] is reported as “caused paw swelling”. In the experiment with mice [3], the “pain behaviours on co-injection with venom PLA2” value was “potentiated by co-injection with 20 pmol venom PLA2”. Also, the spontaneous pain behaviours result in the experiment with mice [3] (shallow intraplantar) is “caused spontaneous pain behaviours”. Further, in the experiment on F11 cells, the EC50 turned out to be 1.2 ± 0.1 µM. The pore formation result in experiment [6] is “can form pores in cell membranes”. Also, in the experiment with HEK293AD cells (10 μM melittin, 2 min after addition, n = 5 cells, Fig. S4), the “leak current in HEK293AD cells” value is recorded as “causes a leak current in HEK293AD cells”.

For the compound “MCD-peptide: mast cell-degranulating (MCD)-peptide of A. mellifera (Uniprot: P01499), purchased from Alomone labs (IKCNCKRHVIKPHICRKICGKN; UniProt P01499 28-49, looked up)”, the “block of KV1.1” value in experiment [7] was “blocker”. Moreover, the “paw-withdrawal threshold to a mechanical stimulus versus negative control (saline)” value in the experiment on mice [2] (mouse, in vivo) was “no difference to negative control (saline) injection”. Further, the “pain behaviour counts versus control” value in the experiment with mice [3] (mouse, in vivo) was “not different to control”. Moreover, in [8], the “block of KV1.2” value is reported as “blocker”.
